Measured values taken from patent publication US20140235729A1, “BENZYLAMINE CONTAINING COMPOSITIONS AND METHODS FOR APPETITE SUPPRESSION” (Zija International, Inc., priority 2013, published 2014).

Columns and labels:
[1] = 'thought to be' / 'believed to be'; cited from earlier work
[2] = in subjects; 'understood to be'; cited from earlier work
appetite = appetite suppression after oral consumption by a subject; format: in vivo; conditions: consumed orally by a subject; 'results have shown'; listed as Moringine
Description: Generally speaking, most parts of the Moringa Oleifera tree are edible, with the leaves and seeds often being associated with most of the above-mentioned nutritional and health benefits.
However, the medium lethal dose (LD50) of benzylamine in subjects is understood to be about 600 milligrams (mg) per kilogram (kg) (i.e., 600 mg/kg). […] However, in accordance with the novel appetite suppression compositions and methods described herein, an effective amount of benzylamine that is far below the LD50 can be orally administered to adult humans for appetite suppression.

For `NCc1ccccc1` [benzylamine], the in vivo half-life [1] is given as 15 to 30 min, the “medium lethal dose (LD50)” value [2] is given as “about 600 mg/kg” and the appetite suppression (appetite) is given as “can suppress a subject's appetite”.
